Our source for the Cmax values is patent publication US20260108687A1 (Belhaven BioPharma Inc., priority 2024, published 2026).

The Cmax is the peak of the concentration-time curve.

The series in a line: Phase 1 clinical study / Study 101: plasma epinephrine pharmacokinetics. It counts as in vivo. The settings on record: human, 0.3 mg IM, read-out: mean baseline-corrected Cmax.

Description: Twelve human subjects participated in the open-label, single sequence crossover study. […] The subjects returned for a safety follow up visit 3 to 5 days after the final treatment.
The dry powder formulation was administered via intranasal instillation once using a nasal device (APTAR). The IM solution and materials were supplied by the study site and prepared according to the local procedures. The study drug was administered at approximately the same time on each treatment day. There was a washout period of 20 days between the nasal doses administered as treatment A and treatment D. The subjects were admitted to the clinical site the day before each treatment administration and remained on site until at least 8 hours post-dose, or when applicable, until 24 hours post-dose of the specific treatment period. The study drug was administered after at least a 10 hour fast. A standardized meal was provided approximately 4 hours after dosing. […]
Noncompartmental analysis was performed on individual human subject plasma concentration-time data using nominal doses and actual blood sampling times. […] Baseline correction was accomplished using the average of the measured concentrations at nominal times of −60, −30, and 0 minutes before dosing. […]

For the compound `CNC[C@H](O)c1ccc(O)c(O)c1` [Epinephrine IM, epinephrine], the Cmax came to 184 µg/mL.
